In assay [1] the test system is OPM-2 human multiple myeloma cell line. Put plainly: Cell Viability Assay (OPM-2 10 FBS). In kind it is cell-based. The note with it: Homo sapiens, OPM-2, 16 h, OPM-2 cells, 16 h, CellTiter-Glo. In short, it runs like this: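 Plated at 3000 cells/well in 10% FBS complete medium, the cells received a serial compound dilution series and incubated 16 h at 37 °C with 5% CO2. CellTiter-Glo was then added; IC50 values were fitted with a logistic 4-parameter model.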

Assay [2] has as its target T1, Mcl-1/Bim interaction, recombinant human Mcl-1 (171-327) (Homo sapiens, UniProt Q07820).
T1 construct: made in house
Put plainly: Cell free Mcl-1: Bim Affinity Assay (Mcl-1 HTRF). In kind it is binding. The note with it: TR-FRET, 0.1 nM Mcl-1 (171-327), 0.05 nM biotin-Bim (51-76). Put shortly:
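Read-out is time-resolved FRET after overnight incubation, using a biotin-labelled peptide from human Bim (51-76) as the binding partner; IC50 was derived from competition curves.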
Background: TR-FRET usually uses a lanthanide donor and a delayed reading to cut background.

T1 sequence (Q07820 171-327): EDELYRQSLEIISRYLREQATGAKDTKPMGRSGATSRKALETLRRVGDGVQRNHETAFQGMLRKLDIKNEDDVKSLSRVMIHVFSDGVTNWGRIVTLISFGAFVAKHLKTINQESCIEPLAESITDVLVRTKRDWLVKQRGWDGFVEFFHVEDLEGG

As a reminder, the IC50 is the midpoint of a concentration-inhibition curve. Take `CO[C@H]1/C=C/[C@H](CCO)C[C@@H](C)S(=O)(=O)NC(=O)c2ccc3c(c2)N(C[C@@H]2CC[C@H]21)C[C@@]1(CCCc2cc(Cl)ccc21)CO3` [Example 202, (1S,3′R,6′R,7′S,8′E,10′R,12′R)-6-chloro-10′-(2-hydroxyethyl)-7′-methoxy-12′-methyl-3,4-dihydro-2H,15′H-spiro[naphthalene-1,22′-[20]oxa[13]thia[1,14]diazatetracyclo[14.7.2.0^3,6.0^19,24]pentacosa [8,16,18,24]tetraen]-15′-one 13′,13′-dioxide]: the values for the IC50 in assay [1] and in assay [2] were 0.566 µM and 0.000218 µM, respectively.

Take `CO[C@H]1/C=C/[C@H](CC#N)C[C@@H](C)S(=O)(=O)NC(=O)c2ccc3c(c2)N(C[C@@H]2CC[C@H]21)C[C@@]1(CCCc2cc(Cl)ccc21)CO3` [Example 203, ((1S,3′R,6′R,7′S,8′E,10′R,12′R)-6-chloro-7′-methoxy-12′-methyl-13′,13′-dioxido-15′-oxo-3,4-dihydro-2H-spiro[naphthalene-1,22′-[20]oxa[13]thia[1,14]diazatetracyclo[14.7.2.0^3,6.0^19,24]pentacosa [8,16,18,24]tetraen]-10′-yl)acetonitrile]: the IC50 came out at 2.79 µM in assay [1] and 0.000367 µM in assay [2].

On to `COCC[C@H]1/C=C/[C@H](OC)[C@@H]2CC[C@H]2CN2C[C@@]3(CCCc4cc(Cl)ccc43)COc3ccc(cc32)C(=O)NS(=O)(=O)[C@H](C)C1` [Example 204, (1S,3′R,6′R,7′S,8′E,10′R,12′R)-6-chloro-7′-methoxy-10′-(2-methoxyethyl)-12′-methyl-3,4-dihydro-2H,15′H-spiro[naphthalene-1,22′-[20]oxa[13]thia[1,14]diazatetracyclo[14.7.2.0^3,6.0^19,24]pentacosa [8,16,18,24]tetraen]-15′-one 13′,13′-dioxide], for which the IC50 worked out at 0.686 µM in assay [1] and 0.000732 µM in assay [2].

For the molecule `CCO[C@@H]1/C=C/CCCS(=O)(=O)NC(=O)c2ccc3c(c2)N(C[C@@H]2CC[C@H]21)C[C@@]1(CCCc2cc(Cl)ccc21)CO3` [Example 209, (1S,3′R,6′R,7′R,8′E)-6-chloro-7′-ethoxy-3,4-dihydro-2H,15′H-spiro[naphthalene-1,22′-[20]oxa[13]thia[1,14]diazatetracyclo[14.7.2.0^3,6.0^19,24]pentacosa [8,16,18,24]tetraen]-15′-one 13′,13′-dioxide], the values for the concentration for half-maximal inhibition (IC50) in assay [1] and in assay [2] were 5.37 µM and 0.00526 µM, respectively.

On to `COCCO[C@@H]1/C=C/CCCS(=O)(=O)NC(=O)c2ccc3c(c2)N(C[C@@H]2CC[C@H]21)C[C@@]1(CCCc2cc(Cl)ccc21)CO3` [Example 210, (1S,3′R,6′R,7′R,8′E)-6-chloro-7′-(2-methoxyethoxy)-3,4-dihydro-2H,15′H-spiro[naphthalene-1,22′-[20]oxa[13]thia[1,14]diazatetracyclo[14.7.2.0^3,6.0^19,24]pentacosa [8,16,18,24]tetraen]-15′-one 13′,13′-dioxide], for which the IC50 in assay [1] amounted to 1.53 µM; in assay [2], 0.00159 µM.

As for `CN(C)C(=O)CCO[C@@H]1/C=C/CCCS(=O)(=O)NC(=O)c2ccc3c(c2)N(C[C@@H]2CC[C@H]21)C[C@@]1(CCCc2cc(Cl)ccc21)CO3` [Example 211, 3-(((1S,3′R,6′R,7′R,8′E)-6-chloro-13′,13′-dioxido-15′-oxo-3,4-dihydro-2H-spiro[naphthalene-1,22′-[20]oxa[13]thia[1,14]diazatetracyclo[14.7.2.0^3,6.0^19,24]pentacosa [8,16,18,24]tetraen]-7′-yl)oxy)-N,N-dimethylpropanamide], the concentration for half-maximal inhibition (IC50) in assay [1] amounted to 2.37 µM; in assay [2] it was 0.00111 µM.

For `CN(C)CCNC(=O)CO[C@@H]1/C=C/CCCS(=O)(=O)NC(=O)c2ccc3c(c2)N(C[C@@H]2CC[C@H]21)C[C@@]1(CCCc2cc(Cl)ccc21)CO3` [Example 212, 2-(((1S,3′R,6′R,7′R,8′E)-6-chloro-13′,13′-dioxido-15′-oxo-3,4-dihydro-2H-spiro[naphthalene-1,22′-[20]oxa[13]thia[1,14]diazatetracyclo[14.7.2.0^3,6.0^19,24]pentacosa [8,16,18,24]tetraen]-7′-yl)oxy)-N-(2-(dimethylamino)ethyl)acetamide], the results for the half-maximal inhibitory concentration (IC50) in assay [1] and in assay [2] were 18.2 µM and 0.00296 µM, respectively.

Turning to `O=C1NS(=O)(=O)CCC/C=C/[C@@H](OCCN2CCOCC2)[C@@H]2CC[C@H]2CN2C[C@@]3(CCCc4cc(Cl)ccc43)COc3ccc1cc32` [Example 213, (1S,3′R,6′R,7′R,8′E)-6-chloro-7′-(2-(4-morpholinyl)ethoxy)-3,4-dihydro-2H,15′H-spiro[naphthalene-1,22′-[20]oxa[13]thia[1,14]diazatetracyclo[14.7.2.0^3,6.0^19,24]pentacosa [8,16,18,24]tetraen]-15′-one 13′,13′-dioxide], the IC50 in assay [1] amounted to 0.835 µM; in assay [2], 0.00108 µM.

`Cc1noc(C)c1CO[C@@H]1/C=C/CCCS(=O)(=O)NC(=O)c2ccc3c(c2)N(C[C@@H]2CC[C@H]21)C[C@@]1(CCCc2cc(Cl)ccc21)CO3` [Example 214, (1S,3′R,6′R,7′R,8′E)-6-chloro-7′-((3,5-dimethyl-4-isoxazolyl)methoxy)-3,4-dihydro-2H,15′H-spiro[naphthalene-1,22′-[20]oxa[13]thia[1,14]diazatetracyclo[14.7.2.0^3,6.0^19,24]pentacosa [8,16,18,24]tetraen]-15′-one 13′,13′-dioxide]: the half-inhibitory concentration (IC50) is 2.28 µM in assay [1] and 0.0123 µM in assay [2].

Take `Cn1cnc(CO[C@@H]2/C=C/CCCS(=O)(=O)NC(=O)c3ccc4c(c3)N(C[C@@H]3CC[C@H]32)C[C@@]2(CCCc3cc(Cl)ccc32)CO4)n1` [Example 215, (1S,3′R,6′R,7′R,8′E)-6-chloro-7′-((1-methyl-1H-1,2,4-triazol-3-yl)methoxy)-3,4-dihydro-2H,15′H-spiro[naphthalene-1,22′-[20]oxa[13]thia[1,14]diazatetracyclo[14.7.2.0^3,6.0^19,24]pentacosa [8,16,18,24]tetraen]-15′-one 13′,13′-dioxide]: the half-inhibitory concentration (IC50) in assay [1] was found to be 8.74 µM; in assay [2], 0.00132 µM.

With `O=C1NS(=O)(=O)CCC/C=C/[C@@H](OCc2nccs2)[C@@H]2CC[C@H]2CN2C[C@@]3(CCCc4cc(Cl)ccc43)COc3ccc1cc32` [Example 216, (1S,3′R,6′R,7′R,8′E)-6-chloro-7′-(1,3-thiazol-2-ylmethoxy)-3,4-dihydro-2H,15′H-spiro[naphthalene-1,22′-[20]oxa[13]thia[1,14]diazatetracyclo[14.7.2.0^3,6.0^19,24]pentacosa [8,16,18,24]tetraen]-15′-one 13′,13′-dioxide], the values for the IC50 in assay [1] and in assay [2] were 26.2 µM and 0.00977 µM, respectively.

With `CCOC(=O)CO[C@@H]1/C=C/CCCS(=O)(=O)NC(=O)c2ccc3c(c2)N(C[C@@H]2CC[C@H]21)C[C@@]1(CCCc2cc(Cl)ccc21)CO3` [Example 217, ethyl(((1S,3′R,6′R,7′R,8′E)-6-chloro-13′,13′-dioxido-15′-oxo-3,4-dihydro-2H-spiro[naphthalene-1,22′-[20]oxa[13]thia[1,14]diazatetracyclo[14.7.2.0^3,6.0^19,24]pentacosa [8,16,18,24]tetraen]-7′-yl)oxy)acetate], the half-inhibitory concentration (IC50) in assay [1] is 2.66 µM; in assay [2], 0.00381 µM.

With `O=C(O)CO[C@@H]1/C=C/CCCS(=O)(=O)NC(=O)c2ccc3c(c2)N(C[C@@H]2CC[C@H]21)C[C@@]1(CCCc2cc(Cl)ccc21)CO3` [Example 218, (((1S,3′R,6′R,7′R,8′E)-6-chloro-13′,13′-dioxido-15′-oxo-3,4-dihydro-2H-spiro[naphthalene-1,22′-[20]oxa[13]thia[1,14]diazatetracyclo[14.7.2.0^3,6.0^19,24]pentacosa [8,16,18,24]tetraen]-7′-yl)oxy)acetic acid], the IC50 in assay [1] is 3.67 µM; in assay [2] it was 0.000216 µM.

`CN(C)S(=O)(=O)CCO[C@@H]1/C=C/CCCS(=O)(=O)NC(=O)c2ccc3c(c2)N(C[C@@H]2CC[C@H]21)C[C@@]1(CCCc2cc(Cl)ccc21)CO3` [Example 219, 2-(((1S,3′R,6′R,7′R,8′E)-6-chloro-13′,13′-dioxido-15′-oxo-3,4-dihydro-2H-spiro[naphthalene-1,22′-[20]oxa[13]thia[1,14]diazatetracyclo[14.7.2.0^3,6.0^19,24]pentacosa [8,16,18,24]tetraen]-7′-yl)oxy)-N,N-dimethylethanesulfonamide]: the half-maximal inhibitory concentration (IC50) is 1.83 µM in assay [1] and 0.0024 µM in assay [2].

In the case of `O=C1NS(=O)(=O)CCC/C=C/[C@@H](OCCO)[C@@H]2CC[C@H]2CN2C[C@@]3(CCCc4cc(Cl)ccc43)COc3ccc1cc32` [Example 220, (1S,3′R,6′R,7′R,8′E)-6-chloro-7′-(2-hydroxyethoxy)-3,4-dihydro-2H,15′H-spiro[naphthalene-1,22′-[20]oxa[13]thia[1,14]diazatetracyclo[14.7.2.0^3,6.0^19,24]pentacosa [8,16,18,24]tetraen]-15′-one 13′,13′-dioxide], the concentration for half-maximal inhibition (IC50) was 2.66 µM in assay [1] and 0.00199 µM in assay [2].

Turning to `O=C1NS(=O)(=O)CCCC[C@@H](O)[C@@H]2CC[C@H]2CN2C[C@@]3(CCCc4cc(Cl)ccc43)COc3ccc1cc32` [Example 222, (1S,3′R,6′R,7′R)-6-chloro-7′-hydroxy-3,4-dihydro-2H,14′H-spiro[naphthalene-1,21′-[19]oxa[12]thia[1,13]diazatetracyclo[13.7.2.0^3,6.0^18,23]tetracosa [15,17,23]trien]-14′-one 12′,12′-dioxide], the IC50 in assay [1] stood at 30.8 µM; in assay [2], 0.00908 µM.

In the case of `O=C1NS(=O)(=O)CCCCCC[C@@H](O)[C@@H]2CC[C@H]2CN2C[C@@]3(CCCc4cc(Cl)ccc43)COc3ccc1cc32` [Example 228, (1S,3′R,6′R,7′R)-6-chloro-7′-hydroxy-3,4-dihydro-2H,16′H-spiro[naphthalene-1,23′-[21]oxa[14]thia[1,15]diazatetracyclo[15.7.2.0^3,6.0^20,25]hexacosa[17,19,25]trien]-16′-one 14′,14′-dioxide], the IC50 in assay [1] was determined as 23.1 µM; in assay [2], 0.0131 µM.

The values are drawn from US12091425B2 (AMGEN INC., priority 2016, dated 2024).
